Assay results as given in patent publication US20250051347A1, “BIFUNCTIONAL CHIMERIC HETEROCYCLIC COMPOUND AND USE THEREOF AS ANDROGEN RECEPTOR DEGRADER” (Hinova Pharmaceuticals, Inc., priority 2021, published 2025).

Target: T1, androgen receptor (AR) splicing variant AR-v7 (Homo sapiens, UniProt P10275)
T1 construct: The degradation activity of compounds on AR-v7 in 22RV1 cells; host or cells: 22RV1 cells
T1 sequence (P10275 1-644 isoform P10275-3): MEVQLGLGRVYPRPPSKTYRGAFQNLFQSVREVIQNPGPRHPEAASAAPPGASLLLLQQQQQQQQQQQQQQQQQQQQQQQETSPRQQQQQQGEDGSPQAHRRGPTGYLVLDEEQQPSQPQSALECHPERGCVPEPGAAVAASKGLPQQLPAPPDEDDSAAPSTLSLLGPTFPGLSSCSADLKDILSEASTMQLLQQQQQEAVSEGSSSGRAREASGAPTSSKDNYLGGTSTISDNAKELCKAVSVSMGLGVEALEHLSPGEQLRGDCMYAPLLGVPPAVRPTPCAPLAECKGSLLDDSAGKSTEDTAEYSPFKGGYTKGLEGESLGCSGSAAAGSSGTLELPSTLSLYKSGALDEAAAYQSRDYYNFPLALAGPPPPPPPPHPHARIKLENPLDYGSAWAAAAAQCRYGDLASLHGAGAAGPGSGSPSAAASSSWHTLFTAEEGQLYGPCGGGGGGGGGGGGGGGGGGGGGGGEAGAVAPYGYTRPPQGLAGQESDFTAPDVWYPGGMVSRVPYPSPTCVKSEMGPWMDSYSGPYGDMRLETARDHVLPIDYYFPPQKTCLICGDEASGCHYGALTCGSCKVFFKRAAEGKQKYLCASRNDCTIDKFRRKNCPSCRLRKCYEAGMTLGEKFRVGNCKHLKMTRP
Test: Degradation activity on androgen receptor splicing variant AR-v7 in 22RV1 cells (ELISA)
Assay type: cell-based
Conditions: AR-v7 degradation in 22RV1 cells, 48 h

Row | DC50 (numeric values) [nM] | DC50 (class symbols) [nM] | SMILES
1 | ≥ 10000 | – | CC(=O)c1nccc(COc2ccc(C(C)(C)c3ccc(OCC4CCN(c5ccc6c(c5)C(=O)N(C5CCC(=O)NC5=O)C6=O)C4)cc3)cc2)n1 (stereo not drawn) [Example 302, 5-(3-((4-(2-(4-((2-acetylpyrimidin-4-yl)methoxy)phenyl)propan-2-yl)phenoxy)methyl)pyrrolidin-1-yl)-2-(2,6-dioxopiperidin-3-yl)isoindolin-1,3-dione]
2 | > 10000 | – | CC(=O)c1nccc(COc2ccc(C(C)(C)c3ccc(OCC4CCCN(c5cccc6c5C(=O)N(C5CCC(=O)NC5=O)C6=O)C4)cc3)cc2)n1 (stereo not drawn) [Example 303, 4-(3-((4-(2-(4-((2-acetylpyrimidin-4-yl)methoxy)phenyl)propan-2-yl)phenoxy)methyl)piperidin-1-yl)-2-(2,6-dioxopiperidin-3-yl)isoindolin-1,3-dione]
3 | > 2500 | – | CC(=O)c1nccc(COc2ccc(C(C)(C)c3ccc(OCC4CCCN(c5ccc6c(c5)C(=O)N(C5CCC(=O)NC5=O)C6=O)C4)cc3)cc2)n1 (stereo not drawn) [Example 304, 5-(3-((4-(2-(4-((2-acetylpyrimidin-4-yl)methoxy)phenyl)propan-2-yl)phenoxy)methyl)piperidin-1-yl)-2-(2,6-dioxopiperidin-3-yl)isoindolin-1,3-dione]
4 | – | 1000 to 5000 | CC(=O)c1nccc(COc2ccc(C(C)(C)c3ccc(N4CCC5(CC4)CN(c4ccc6c(c4)C(=O)N(C4CCC(=O)NC4=O)C6=O)C5)cc3)cc2)n1 (stereo not drawn) [Example 305]
5 | – | 1000 to 5000 | CC(=O)c1nccc(COc2ccc(C(C)(C)c3ccc(OC[C@H]4CCN4c4ccc5c(c4)C(=O)N(C4CCC(=O)NC4=O)C5=O)cc3)cc2)n1 (stereo partly drawn) [Example 307, 5-((R)-2-((4-(2-(4-((2-acetylpyrimidin-4-yl)methoxy)phenyl)propan-2-yl)phenoxy)methyl)azetidin-1-yl)-2-(2,6-dioxopiperidin-3-yl)isoindolin-1,3-dione]
6 | – | 11 to 100 | CC(C)(c1ccc(C#CCNc2ccc3c(c2)C(=O)N(C2CCC(=O)NC2=O)C3=O)cc1)c1ccc(OCc2ccnc(N3CC4(COC4)C3)n2)cc1 (stereo not drawn) [Example 309, 5-((3-(4-(2-(4-((2-(2-oxa-6-azaspiro[3.3]heptan-6-yl)pyrimidin-4-yl)methoxy)phenyl)propan-2-yl)phenyl)prop-2-yn-1-yl)amino)-2-(2,6-dioxopiperidin-3-yl)isoindolin-1,3-dione]
7 | – | 101 to 1000 | CC(C)(c1ccc(OCC#Cc2ccc3c(c2)C(=O)N(C2CCC(=O)NC2=O)C3=O)cc1)c1ccc(OCc2ccnc(N3CC4(COC4)C3)n2)cc1 (stereo not drawn) [Example 310]
8 | – | 101 to 1000 | CC(C)(c1ccc(OCc2ccnc(N3CC4(COC4)C3)n2)cc1)c1ccc(OC[C@@H]2CCCN2c2ccc3c(c2)C(=O)N(C2CCC(=O)NC2=O)C3=O)cc1 (stereo partly drawn) [Example 313, 5-((S)-2-((4-(2-(4-((2-(2-oxa-6-azaspiro[3.3]heptane-6-yl)pyrimidin-4-yl)methoxy)phenyl)propan-2-yl)phenoxy)methyl)pyrrolidin-1-yl)-2-(2,6-dioxopiperidin-3-yl)isoindolin-1,3-dione]
9 | – | 1000 to 5000 | CC(C)(c1ccc(OCc2ccnc(N3CC4(COC4)C3)n2)cc1)c1ccc(OC[C@H]2CCCN2c2ccc3c(c2)C(=O)N(C2CCC(=O)NC2=O)C3=O)cc1 (stereo partly drawn) [Example 314, 5-((R)-2-((4-(2-(4-((2-(2-oxa-6-azaspiro[3.3]heptan-6-yl)pyrimidin-4-yl)methoxy)phenyl)propan-2-yl)phenoxy)methyl)pyrrolidin-1-yl)-2-(2,6-dioxopiperidin-3-yl)isoindolin-1,3-dione]
10 | – | 1000 to 5000 | CC(C)(c1ccc(OCc2ccnc(N3CC4(COC4)C3)n2)cc1)c1ccc(O[C@H]2CCC[C@H]2Nc2ccc3c(c2)C(=O)N(C2CCC(=O)NC2=O)C3=O)cc1 (stereo partly drawn) [Example 315]
11 | – | 11 to 100 | CC(C)(c1ccc(Oc2ncc(I)cn2)cc1)c1ccc(O[C@H]2C[C@@H](Nc3ccc4c(c3)C(=O)N(C3CCC(=O)NC3=O)C4=O)C2)cc1 (stereo partly drawn) [Example 316]
12 | – | 11 to 100 | CC(C)(c1ccc(Oc2ccc(N3CC4(COC4)C3)nn2)cc1)c1ccc(O[C@H]2C[C@@H](Nc3ccc4c(c3)C(=O)N(C3CCC(=O)NC3=O)C4=O)C2)cc1 (stereo partly drawn) [Example 317]
13 | – | 101 to 1000 | CC(C)(c1ccc(CCNc2ccc3c(c2)C(=O)N(C2CCC(=O)NC2=O)C3=O)cc1)c1ccc(OCc2ccnc(N3CC4(COC4)C3)n2)cc1 (stereo not drawn) [Example 318, 5-((4-(2-(4-((2-(2-oxa-6-azaspiro[3.3]heptan-6-yl)pyrimidin-4-yl)methoxy)phenyl)propan-2-yl)phenylethyl)amino)-2-(2,6-dioxopiperidin-3-yl)isoindolin-1,3-dione]
14 | – | 11 to 100 | CC(C)(c1ccc(Oc2nc(-n3ccnn3)ccc2F)cc1)c1ccc(O[C@H]2C[C@H](Nc3ccc4c(c3)C(=O)N(C3CCC(=O)NC3=O)C4=O)C2)cc1 (stereo partly drawn) [Example 319]
15 | – | 11 to 100 | CC(C)(c1ccc(Oc2nc(-n3nccn3)ccc2F)cc1)c1ccc(O[C@H]2C[C@H](Nc3ccc4c(c3)C(=O)N(C3CCC(=O)NC3=O)C4=O)C2)cc1 (stereo partly drawn) [Example 320]
16 | – | 11 to 100 | CC(C)(c1ccc(Oc2ccc(-n3ccnn3)nn2)cc1)c1ccc(O[C@H]2C[C@H](Nc3ccc4c(c3)C(=O)N(C3CCC(=O)NC3=O)C4=O)C2)cc1 (stereo partly drawn) [Example 325]
17 | – | 11 to 100 | Cc1nc(-c2ncc(Oc3ccc(C(C)(C)c4ccc(OC[C@@H]5CCN5c5ccc6c(c5)C(=O)N(C5CCC(=O)NC5=O)C6=O)cc4)cc3)cn2)no1 (stereo partly drawn) [Example 326, 2-(2,6-dioxopiperidin-3-yl)-5-((S)-2-((4-(2-(4-((2-(5-methyl-1,2,4-oxadiazol-3-yl)pyrimidin-5-yl)oxy)phenyl)propan-2-yl)phenoxy)methyl)azetidin-1-yl)isoindolin-1,3-dione]
18 | – | 11 to 100 | Cc1nc(-c2cnc(Oc3ccc(C(C)(C)c4ccc(O[C@H]5C[C@H](Nc6ccc7c(c6)C(=O)N(C6CCC(=O)NC6=O)C7=O)C5)cc4)cc3)nc2)no1 (stereo partly drawn) [Example 327]
19 | – | 11 to 100 | CC(C)(c1ccc(Oc2ncc(-n3nccn3)cn2)cc1)c1ccc(O[C@H]2C[C@@H](Nc3ccc4c(c3)C(=O)N(C3CCC(=O)NC3=O)C4=O)C2)cc1 (stereo partly drawn) [Example 329]
20 | – | 11 to 100 | Cc1nc(-c2ccc(Oc3ccc(C(C)(C)c4ccc(O[C@H]5C[C@H](Nc6ccc7c(c6)C(=O)N(C6CCC(=O)NC6=O)C7=O)C5)cc4)cc3)cc2)no1 (stereo partly drawn) [Example 332, 2-(2,6-dioxopiperidin-3-yl)-5-((1r,3r)-3-(4-(2-(4-(4-(5-methyl-1,2,4-oxadiazol-3-yl)phenoxy)phenyl)propan-2-yl)phenoxy)cyclobutyl)aminoisoindolin-1,3-dione]
21 | – | 11 to 100 | CC(C)(c1ccc(Oc2ccc(-n3nccn3)cc2)cc1)c1ccc(O[C@H]2C[C@H](Nc3ccc4c(c3)C(=O)N(C3CCC(=O)NC3=O)C4=O)C2)cc1 (stereo partly drawn) [Example 334]
22 | – | 101 to 1000 | Cc1nc(-c2ccc(Oc3ccc(C(C)(C)c4ccc(OC5CC(Nc6ccc7c(c6)C(=O)N(C6CCC(=O)N(C)C6=O)C7=O)C5)cc4)cc3)nn2)no1 (stereo not drawn) [Example 335, 5-((1r,3r)-3-(4-(2-(4-((6-(5-methyl-1,2,4-oxadiazol-3-yl)pyridazine-3-yl)oxy)phenyl)propan-2-yl)phenoxy)cyclobutyl)amino)-2-(1-methyl-2,6-dioxopiperidin-3-yl)isoindolin-1,3-dione]
23 | – | 11 to 100 | Cc1nc(-c2cnc(Oc3ccc(C(C)(C)c4ccc(O[C@H]5C[C@@H](Nc6ccc7c(c6)C(=O)N(C6CCC(=O)NC6=O)C7=O)C5)cc4)cc3)nc2)no1 (stereo partly drawn) [Example 336]
24 | – | 11 to 100 | Cc1nc(-c2ccc(Oc3ccc(C(C)(C)c4ccc(O[C@H]5C[C@@H](Nc6ccc7c(c6)C(=O)N(C6CCC(=O)NC6=O)C7=O)C5)cc4)cc3)nn2)no1 (stereo partly drawn) [Example 337]
